The values that follow come from patent US20250276073A1, “BICYCLIC PEPTIDE LIGANDS SPECIFIC FOR TRANSFERRIN RECEPTOR 1 (TfR1)” (BicycleTx Limited, priority 2022, published 2025).

Starred links: 1 amine or outer side, 2 acyl side, 3 side chain; linkers in the order of their positions; H or OH if unused. Positions of bridges follow the written chain, without caps; N, C: chain ends. Non-standard residues stand in square brackets, D forms with d. Residues, ends and D or L forms follow the SMILES beside them. TATB = O=C(C[*:1])N1CN(C(=O)C[*:2])CN(C(=O)C[*:3])C1; Hyp = O=C(O)[C@@H]1C[C@@H](O)CN1; Tle = CC(C)(C)[C@H](N)C(=O)O

Sequence of Human TfR1 (P02786 89-760): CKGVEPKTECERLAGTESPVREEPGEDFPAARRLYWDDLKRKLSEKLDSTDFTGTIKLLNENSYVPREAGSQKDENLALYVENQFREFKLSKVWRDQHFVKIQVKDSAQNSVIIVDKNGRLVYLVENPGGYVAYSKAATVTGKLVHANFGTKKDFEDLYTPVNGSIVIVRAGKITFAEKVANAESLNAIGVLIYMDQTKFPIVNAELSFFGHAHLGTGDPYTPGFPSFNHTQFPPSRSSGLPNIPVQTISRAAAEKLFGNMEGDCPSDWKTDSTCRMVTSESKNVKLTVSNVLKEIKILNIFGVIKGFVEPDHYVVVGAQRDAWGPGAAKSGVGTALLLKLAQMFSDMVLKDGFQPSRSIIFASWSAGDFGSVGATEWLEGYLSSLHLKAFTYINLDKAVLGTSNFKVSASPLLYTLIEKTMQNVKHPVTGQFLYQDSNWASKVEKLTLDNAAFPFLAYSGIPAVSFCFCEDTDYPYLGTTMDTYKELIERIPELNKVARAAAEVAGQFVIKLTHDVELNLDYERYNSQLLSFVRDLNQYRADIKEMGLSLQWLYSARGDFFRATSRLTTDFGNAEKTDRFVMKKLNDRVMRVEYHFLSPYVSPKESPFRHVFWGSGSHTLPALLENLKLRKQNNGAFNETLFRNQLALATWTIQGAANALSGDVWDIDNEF

The assay addresses Human TfR1 (Homo sapiens, UniProt P02786). The assay is described as follows: biochemical.
Method: Recombinant human and cynomolgus TfR1 were received from Bicycle as Hiss-tagged TfR1 (a.a. 89-760) (ACRO Biosystems, CD1-H5243 and TFR-C524a).
For analysis of TfR1 peptide binding, a Biacore T200 or S200 instrument was used utilising a capture/coupling approach with a Cytiva NTA chip at 25° C. with 25 mM HEPES, 0.1M NaCl, 0.05% Tween 20 pH 7.4 as the running buffer. Immobilisation was carried out as follows. The chip was pre-equilibrated with an injection of 500 mM EDTA (pH 8), before activation with 5 mM NiSO4. The surface was then activated using standard amine-coupling chemistry. Briefly, the carboxymethyl dextran surface was activated with a 1:1 ratio of 0.4 M 1-ethyl-3-(3-dimethylaminopropyl) carbodiimide hydrochloride (EDC)/0.1 M N-hydroxy succinimide (NHS). The TfR1 protein (human or cynomolgus) was then captured onto the activated surface after dilution into running buffer to 200 nM and 250 nM respectively. Residual activated groups were blocked with a 7 min injection of 1 M ethanolamine (pH 8.5):HBS-N(1:1). Reference surfaces were activated and blocked as above with no TfR1 protein capture. Capture levels were in the range of 1,500-5,000 RU dependent upon the individual study Buffer was changed to 25 mM HEPES, 0.1M NaCl, 0.05% Tween 20 pH 7.4 1% DMSO.
A dilution series of test peptides was prepared in this buffer with a top peptide concentration of 5 μM and 6 further 2-fold dilutions. The SPR analysis was run at 25° C. at a flow rate of 30 μl/min with 160 seconds association and 700-800 seconds dissociation. Data were corrected for DMSO excluded volume effects. All data were double-referenced for blank injections and reference surface using standard processing procedures and data processing and kinetic fitting were performed using Scrubber software, version 2.0c (BioLogic Software). Data were fitted using simple 1:1 binding model allowing for mass transport effects where appropriate.
Consider `CC(=O)N[C@H]1CSCC(=O)N2CN3CN(C2)C(=O)CSC[C@@H](C(=O)N[C@@H](CCC(=O)O)C(=O)N2CCC[C@H]2C(=O)N[C@@H](CCc2ccc(O)cc2)C(N)=O)NC(=O)[C@H](Cc2ccc(O)cc2)NC(=O)[C@H](CO)NC(=O)[C@H](C(C)(C)C)NC(=O)[C@H](CSCC3=O)NC(=O)CNC(=O)[C@H](CC(C)C)NC(=O)[C@H](Cc2ccc(O)cc2)NC(=O)[C@H](C)NC(=O)[C@H](CC(=O)O)NC(=O)[C@@H]2C[C@@H](O)CN2C(=O)[C@@H]2CCCN2C1=O` [BCY23211, CP[HyP]DAYLGC[tBuGly]SYCEP[hTyr]], for which the equilibrium dissociation constant (Kd) – broadly, the concentration at which binding is half-saturated – amounted to 7.7 nM. `CC(=O)N[C@H]1CSCC(=O)N2CN3CN(C2)C(=O)CSC[C@@H](C(=O)N[C@@H](CCC(=O)O)C(=O)N2CCC[C@H]2C(=O)N[C@@H](Cc2ccc(O)cc2)C(N)=O)NC(=O)[C@H](Cc2ccc(O)cc2)NC(=O)[C@H](CO)NC(=O)[C@H](C(C)(C)C)NC(=O)[C@H](CSCC3=O)NC(=O)CNC(=O)[C@H](CC(C)C)NC(=O)[C@H](Cc2ccc(O)cc2)NC(=O)[C@H](C)NC(=O)[C@H](CC(=O)O)NC(=O)[C@@H]2C[C@@H](O)CN2C(=O)[C@@H]2CCCN2C1=O` [BCY23207, CP[HyP]DAYLGC[tBuGly]SYCEPY] gave a dissociation constant (Kd) of 7.7 nM. That is a single-digit nanomolar value. To `CC(=O)N[C@H]1CSCC(=O)N2CN3CN(C2)C(=O)CSC[C@@H](C(=O)N[C@@H](CCC(=O)O)C(=O)N2CCC[C@H]2C(=O)N[C@@H](Cc2c[nH]c4ccccc24)C(N)=O)NC(=O)[C@H](Cc2ccc(O)cc2)NC(=O)[C@H](CO)NC(=O)[C@H](C(C)(C)C)NC(=O)[C@H](CSCC3=O)NC(=O)CNC(=O)[C@H](CC(C)C)NC(=O)[C@H](Cc2ccc(O)cc2)NC(=O)[C@H](C)NC(=O)[C@H](CC(=O)O)NC(=O)[C@@H]2C[C@@H](O)CN2C(=O)[C@@H]2C[C@@H](O)CN2C1=O` [BCY23180, C[HyP][HyP]DAYLGC[tBuGly]SYCEPW] belongs 50 nM. `CC(=O)N[C@H]1CSCC(=O)N2CN3CN(C2)C(=O)CSC[C@@H](C(=O)N[C@@H](CCC(=O)O)C(=O)N2CCC[C@H]2C(=O)N[C@@H](Cc2c[nH]c4ccccc24)C(N)=O)NC(=O)[C@H](Cc2ccc(O)cc2)NC(=O)[C@H](CO)NC(=O)[C@H](C(C)(C)C)NC(=O)[C@H](CSCC3=O)NC(=O)CNC(=O)[C@H](CCC(N)=O)NC(=O)[C@H](Cc2ccc(O)cc2)NC(=O)[C@H](C)NC(=O)[C@H](CC(=O)O)NC(=O)[C@@H]2C[C@@H](O)CN2C(=O)[C@@H]2CCCN2C1=O` [BCY23223, CP[HyP]DAYQGC[tBuGly]SYCEPW] (Ac-CP[Hyp]DAYQGC[Tle]SYCEPW-NH2; linker 1-9-13 via TATB) registered a Kd of 50 nM. That is a double-digit nanomolar value.
